Measurements: patent publication US9283280B2, “Compositions for drug administration” (Aegis Therapeutics, LLC, priority 2008, dated 2016)

Legend:
[1] = cited from earlier work
[2] = Naratriptan sublingual spray two-way crossover study in patients; type: in vivo; conditions: in the presence of 0.18-0.2% alkylsaccharide (dodecylmaltoside)
Experimental: Manufacturing process: Naratriptan hydrochloride salt is dissolved in water and required quantity of polyethylene glycol or ethanol is added. The alkyl glycoside, flavors, aspartame are next dissolved in the solution. Final adjustment of volume is made with water. The sublingual formulation with and without dodecylmaltoside alkylsaccharide is administered using a metered spray pump to 20 patients in a two way, two period cross over study.

[3] = whole-swallowed tablet, cited from earlier work
[4] = cited from earlier work; remark: listed apart in the source
[5] = test system: human nasal epithelium; conditions: in vivo
[6] = test system: Aspergillus niger (ATCC No. 16404); assay: Antimicrobial activity of alkylglycoside solutions, plate count log reduction; type: cell-based; conditions: 0.2%, BSA
Excerpt: (§1) 20110-2209. The viable microorganisms used in the invention were not more than five passages removed from the original ATCC culture. As described herein, one passage is defined as the transfer of organisms from an established culture to fresh medium and all transfers are counted.
(§2) Cultures received from the ATCC are resuscitated according to the directions provided by the ATTC. Cells grown in broth were pelleted by centrifugation, resuspended in 1/20th the volume of fresh maintenance broth, and combined with an equal volume of 20% (v/v in water) sterile glycerol. Cells grown on agar were scraped from the surface into the maintenance broth also containing 10% glycerol broth. Small aliquots of the suspension were dispensed into sterile vials and the vials were stored in liquid nitrogen or in a mechanical freezer at a temperature no higher than about −50° C. When a fresh seed-stock vial was required, it was removed and used to inoculate a series of working stock cultures. These working stock cultures were then used periodically (each day in the case of bacteria and yeast) to start the inoculum culture.
(§3) The culture conditions for the inoculum culture is substantially as described in Table IV. For example, suitable media can include but is not limited to, Soybean-Casein Digest or Sabouraud Dextrose Agar Medium. […]
(§4) The suspension should be refrigerated if it is not used within 2 hours. To confirm the initial cfu per mL estimate, the number of cfu per mL in each suspension was determined using the conditions of media and microbial recovery incubation times listed in Table IV (e.g., from about 3 to about 7 days). This value serves to calibrate the size of inoculum used in the test. The bacterial and yeast suspensions were used within 24 hours of harvest; whereas the fungal preparation can be stored under refrigeration for up to 7 days.
(§5) To determine which alkylglycoside formulations have antibacterial activity, the formulations were prepared in phosphate buffered saline (PBS) at pH 7. As a source of nutrition, either 1.5 mg/mL bovine serum albumin (BSA; see Tables V and VI) or 1 mg/mL of PYY was added (see Table VII) to the medium. BSA (CAS Number: 9048-46-8) was obtained from Sigma-Aldrich, St. Louis, Mo., USA, n-dodecyl-4-O-α-D-glucopyranosyl-β-D-glucopyranoside and n-tetradecyl-4-O-α-D-glucopyranosyl-β-D-glucopyranoside were obtained from Anatrace Inc., Maumee, Ohio, USA, and PYY was obtained from Bachem California Inc., Torrance, Calif., USA.
(§6) Antibacterial activity of the alkylglycosides were conducted in four sterile, capped bacteriological containers of suitable size into which a sufficient volume of alkylglycoside solution had been transferred. Each container was inoculated with one of the prepared and standardized inoculums and mixed. The volume of the suspension inoculum was between about 0.5% and about 1.0% of the volume of the alkylglycoside solution. […]. To determine the level of inhibition of growth, or reduction of growth based on a logarithmic scale, the initial concentration of viable microorganisms in each test preparation was estimated based on the concentration of microorganisms in each of the standardized inoculum as determined by the plate-count method. The inoculated containers were then incubated at about 22.5° C.±2.5. The growth or non-growth of the microorganisms in each culture/container were again determined at day 14 and day 28. The number of cfu present in each calculation was determined by the plate-count procedure standard in the art for the applicable intervals. The change in the orders of magnitude of bacterium and/or fungi was then determined by subtracting the first calculated log 10 values of the concentrations of cfu per mL present at the start or beginning (e.g., day 0), from the log 10 values of the concentration of cfu per mL for each microorganism at the applicable test intervals (e.g., day 14 and day 28; see Tables V, VI and VII).

[7] = test system: Staphylococcus aureus (ATCC No. 6538); assay: as above; type: cell-based; conditions: 0.2%, BSA
Excerpt: as §1, §2, §3, §4, §5, §6

[8] = test system: Candida albicans (ATCC No. 10231); assay: as above; type: cell-based; conditions: 0.2%, BSA
Excerpt: as §1, §2, §3, §4, §5, §6

[9] = test system: Escherichia coli (ATCC No. 8739); assay: as above; type: cell-based; conditions: 0.2%, BSA; growth from initial count
Excerpt: as §1, §2, §3, §4, §5, §6

[10] = Intranasal triptans with alkylsaccharide in rats, plasma levels by HPLC; type: in vivo;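 further: rats in groups of eight given 20 µL into one nostril, dose expressed as triptan free base, Cmax and Tmax read from plasma concentration–time curves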
Experimental: Each set of drug solutions is administered to six groups of eight rats each by 20 uL instillation to a single nare of each animal. […] After the last blood sample is collected each animal is cuthanizcd with CO2. After blood collection, plasma is immediately prepared from each blood sample using lithium/heparin as the anticoagulant. Plasma samples are stored at −70° C. until analyzed. […] The observed Tmax values from each plot is determined by inspection of the concentration vs time plots and recorded as shown in Table XII. The doses designated in this table reflect amounts of triptan free base in each case.

[11] = test system: blood D-glucose; assay: Insulin eye drops with absorption enhancer in xylazine/ketamine-anesthetized hyperglycemic rats, blood D-glucose; type: in vivo, rat; conditions: for Blood Glucose: before eye drops
[12] = test system: blood D-glucose; assay: Insulin nose drops with tetradecylmaltoside in rats, blood glucose; type: in vivo, rat; conditions: nose drop, same insulin concentration with 0.5% tetradecylmaltoside
Excerpt: Tetradecylmaltoside (TDM) in combination with insulin also produced a drop in blood D-glucose levels when administered in the form of a drop intranasally as well as via a drop by the ocular route. […] Thus, intranasal delivery and administration of the alkyl saccharide with drug results in lowering of blood glucose levels.

[13] = test system: food intake; conditions: injection; less than usual, on average; cited from earlier work
[14] = test system: mucociliary surfaces; conditions: concentrations far below those used in intranasal formulations; cited from earlier work
[15] = test system: blood glucose; assay: Intranasal insulin in […] TDM, anesthesia-induced hyperglycemia model; type: in vivo, mouse; conditions: intranasal insulin alone, minus […] TDM
Excerpt: Intranasal administration of drugs or agents are possible in animal models e.g. mice and rats, although the nasal opening in is very small. In the experiments and results described herein, an anesthesia-induced hyperglycemia model was used (described in Examples above). Hyperglycemic animals were induced by an intraperitoneal (IP) injection containing xylazine-ketamine and blood glucose levels were monitored over a period of time. Immediately after the xylazine-ketamine injection, there was an increase in the blood glucose levels as shown in FIG. 2 (closed dark circles), and blood glucose levels were about 450 mg/dl. […] Blood glucose levels peak to about 482 mg/dl by 30 minutes after the xylazine-ketamine injection (FIG. 2). […] At about the 75 minute time point, blood glucose levels gradually returned to the baseline level in a normoglycemic mouse, or about 80-100 mg/dl.

[16] = Naratriptan 0.22 mg/kg intranasal, alkylsaccharide 0.02%
[17] = Naratriptan 0.22 mg/kg intranasal, alkylsaccharide 0.05%
[18] = Naratriptan 0.22 mg/kg intranasal, alkylsaccharide 0.1%
[19] = Naratriptan 0.22 mg/kg intranasal, alkylsaccharide 0.5%
[20] = Naratriptan 0.22 mg/kg intranasal, alkylsaccharide 2%
[21] = Sumatriptan 6.2 mg/kg intranasal, alkylsaccharide 0.02%
[22] = Sumatriptan 6.2 mg/kg intranasal, alkylsaccharide 0.05%
[23] = Sumatriptan 6.2 mg/kg intranasal, alkylsaccharide 0.1%
[24] = Sumatriptan 6.2 mg/kg intranasal, alkylsaccharide 0.5%
[25] = Sumatriptan 6.2 mg/kg intranasal, alkylsaccharide 2%

With `COc1ccc2[nH]cc(CCNC(C)=O)c2c1` [melatonin, 5-methoxy-N-acetyltryptamine] as the compound, how does the “bioavailability (estimated)” value ([1]; oral administration) read?
The value was 30-50%.

And the absolute bioavailability ([1]; oral tablets, normal healthy volunteers, DeMuro et al. (2000))?
The absolute bioavailability was “approximately 15%”.

For `CNS(=O)(=O)CCc1ccc2[nH]cc(C3CCN(C)CC3)c2c1` [naratriptan], which “bioavailability across the sublingual mucosal membranes” value [2] is on record?
The value was “little increase”.

Which “time to peak concentrations” value ([3]; oral dose) does the source give for `Cc1cc2c(s1)Nc1ccccc1N=C2N1CCN(C)CC1` [olanzapine, Olanzapine] here?
Its value is “approximately 6 hours”.

What about the “dose metabolized by first pass before reaching systemic circulation” value [3] of the same compound?
Its value is “approximately 40%”.

With `O=C(c1ccc(OCCN2CCCCC2)cc1)c1c(-c2ccc(O)cc2)sc2cc(O)ccc12` [raloxifene] as the compound, how does the water solubility [4] read?
The water solubility was “approx. 0.25 mg/L”.

Which “irritation of the nasal mucosa” value [5] does the source give for `CCCCCCCCCCCCCCO[C@@H]1O[C@H](CO)[C@@H](O[C@H]2O[C@H](CO)[C@@H](O)[C@H](O)[C@H]2O)[C@H](O)[C@H]1O` [tetradecyl maltoside, n-tetradecyl-4-O-α-D-glucopyranosyl-β-D-glucopyranoside] here?
Its value is “no observable irritation”.

And the “Log Reductions, Day 14” value [6]?
Its value is 0.5 orders of orders of magnitude reduction.

And the “Log Reductions, Day 28” value ([6]; growth from initial count)?
Its value is “No growth”.

And the “Log Reductions, Day 14” value [7]?
Its value is “≧5 orders of orders of magnitude reduction”.

What about the “Log Reductions, Day 28” value [7] of the same compound?
Its value is “≧5 orders of orders of magnitude reduction”.

What about the “Log Reductions, Day 14” value [8] of the same compound?
Its value is 3.0 orders of orders of magnitude reduction.

What about the “Log Reductions, Day 28” value [8] of the same compound?
Its value is “≧5.4 orders of orders of magnitude reduction”.

What about the “Log Reductions, Day 28” value [9] of the same compound?
Its value is “No growth”.

And the “Ratio Cmax(alkylsacch)/Cmax(No alkylsacch)” value [10, 16]?
The value was “≦1.5”.

What about the Tmax [10, 16] of the same compound?
The Tmax was ~60 min.

What about the “Ratio Cmax(alkylsacch)/Cmax(No alkylsacch)” value [10, 17] of the same compound?
Its value is “≧1.5”.

What about the Tmax [10, 17] of the same compound?
The Tmax was ~5 to 15 min.

And the “Ratio Cmax(alkylsacch)/Cmax(No alkylsacch)” value [10, 18]?
The value was “≧1.5”.

What about the Tmax [10, 18] of the same compound?
The Tmax was ~5 to 15 min.

What about the “Ratio Cmax(alkylsacch)/Cmax(No alkylsacch)” value [10, 19] of the same compound?
Its value is “≧1.5”.

What about the Tmax [10, 19] of the same compound?
The Tmax was ~5 to 15 min.

What about the “Ratio Cmax(alkylsacch)/Cmax(No alkylsacch)” value [10, 20] of the same compound?
Its value is “≧1.5”.

And the Tmax [10, 20]?
Its Tmax is ~5 to 15 min.

What about the Tmax ([10]; Rizatriptan […] intranasal, alkylsaccharide 0.02%) of the same compound?
The Tmax was ~60 min.

What about the Tmax ([10]; Rizatriptan […] intranasal, alkylsaccharide 0.05%) of the same compound?
The Tmax was ~5 to 15 min.

What about the Tmax ([10]; Rizatriptan […] intranasal, alkylsaccharide 0.1%) of the same compound?
Its Tmax is ~5 to 15 min.

What about the Tmax ([10]; Rizatriptan […] intranasal, alkylsaccharide 0.5%) of the same compound?
The Tmax was ~5 to 15 min.

And the Tmax ([10]; Rizatriptan […] intranasal, alkylsaccharide 2%)?
The Tmax was ~5 to 15 min.

And the “Ratio Cmax(alkylsacch)/Cmax(No alkylsacch)” value [10, 21]?
The value was “≦1.5”.

What about the Tmax [10, 21] of the same compound?
The Tmax was ~60 min.

What about the “Ratio Cmax(alkylsacch)/Cmax(No alkylsacch)” value [10, 22] of the same compound?
Its value is “≧1.5”.

What about the Tmax [10, 22] of the same compound?
Its Tmax is ~5 to 15 min.

And the “Ratio Cmax(alkylsacch)/Cmax(No alkylsacch)” value [10, 23]?
The value was “≧1.5”.

And the Tmax [10, 23]?
Its Tmax is ~5 to 15 min.

And the “Ratio Cmax(alkylsacch)/Cmax(No alkylsacch)” value [10, 24]?
Its value is “≧1.5”.

And the Tmax [10, 24]?
Its Tmax is ~5 to 15 min.

And the “Ratio Cmax(alkylsacch)/Cmax(No alkylsacch)” value [10, 25]?
The value was “≧1.5”.

What about the Tmax [10, 25] of the same compound?
The Tmax was ~5 to 15 min.

And the “hypoglycemic effect / insulin absorption enhancement” value ([11]; eye drops 0.2% insulin + 0.5% enhancer)?
The value was “effective”.

And the “hypoglycemic effect / insulin absorption enhancement” value ([11]; eye drops 0.2% insulin + […] enhancer)?
The value was “effective”.

What about the “effect on blood glucose levels” value ([11]; eye drops 0.2% regular porcine insulin with […] tetradecylmaltoside) of the same compound?
Its value is “prompt and prominent drop in blood glucose levels”.

And the “Blood Glucose” value ([11]; time −10 min)?
The value was 311 mg/dL.

And the “Blood Glucose” value ([11]; time −20 min)?
The value was 319 mg/dL.

What about the “effect on blood glucose levels” value [12] of the same compound?
The value was “decrease even more”.

Which “reduction of food eaten” value [13] does the source give for “PYY: gut hormone fragment peptide PYY3-36” here?
Its value is 30%.

With benzalkonium chloride as the compound, how does the “toxicity to mucociliary surfaces” value [14] read?
Its value is “significant disruption of the mucociliary surfaces”.

What does the source list for “insulin alone: insulin (Humalog) given intranasally without TDM”?
return to normoglycemic levels [15]: never return to normoglycemic levels; time mark at which blood glucose starts to decline [15]: ~120 min
